Reference: patent US9951049B2, “Pyrazole linked benzimidazole conjugates and a process for preparation thereof” (Council of Scientific & Industrial Reseach, priority 2014, dated 2018)
“Also recorded” adds a separate entry of the source. Like-named read-outs stand apart in the source and are kept apart here.

Columns and labels:
SR = assay: NCI SRB screen, SR; settings: Homo sapiens, 48 h, read-out: GI50 values
SNB-19 = assay: NCI SRB screen, SNB-19; settings: Homo sapiens, SNB-19, 48 h, read-out: GI50 values
RXF 393 = assay: NCI SRB screen, RXF 393; settings: Homo sapiens, RXF 393, 48 h, read-out: GI50 values
SF-295 = assay: NCI SRB screen, SF-295; settings: Homo sapiens, SF-295, 48 h, read-out: GI50 values
SW-620 = assay: NCI SRB screen, SW-620; settings: Homo sapiens, SW-620, 48 h, read-out: GI50 values
DU-145 = assay: NCI SRB screen, DU-145; settings: Homo sapiens, DU-145, 48 h, read-out: GI50 values
[1] = test system: fifty six human tumor cell lines; assay: NCI human tumor cell line screen (48 h, SRB), all cell lines; settings: for GI50: Homo sapiens; for anticancer activity (in words): human cancer cell lines of the NCI panel; for Log10 TGI mean graph midpoint (MG_MID): human tumor cell lines, mean over the panel, total growth inhibition; for potency compared with compounds 6f, 6g, 7g and 10f: against all the cell lines tested
MOLT-4 = assay: NCI SRB screen, MOLT-4; settings: Homo sapiens, MOLT-4, 48 h, read-out: GI50 values
T-47D = assay: NCI SRB screen, T-47D; settings: Homo sapiens, T47D, 48 h, read-out: GI50 values
MDA-MB-435 [2] = assay: NCI SRB screen, MDA-MB-435 (Breast panel); settings: Homo sapiens, MDA-MB-435, 48 h, read-out: GI50 values
NCI-H23 = assay: NCI SRB screen, NCI-H23; settings: Homo sapiens, NCI-H23, 48 h, read-out: GI50 values
HS 578T = assay: NCI SRB screen, HS 578T; settings: Homo sapiens, 48 h, read-out: GI50 values
MDA-MB-435 [3] = assay: NCI SRB screen, MDA-MB-435 (Melanoma panel); settings: Homo sapiens, MDA-MB-435, 48 h, read-out: GI50 values
U251 = assay: NCI SRB screen, U251; settings: Homo sapiens, U-251, 48 h, read-out: GI50 values
A498 = assay: NCI SRB screen, A498; settings: Homo sapiens, A498, 48 h, read-out: GI50 values
HCC-2998 = assay: NCI SRB screen, HCC-2998; settings: Homo sapiens, HCC 2998, 48 h, read-out: GI50 values
UACC-62 = assay: NCI SRB screen, UACC-62; settings: Homo sapiens, UACC-62, 48 h, read-out: GI50 values
[4] = test system: Ovarian cancer cell lines; assay: NCI SRB screen, Ovarian panel average; settings: Homo sapiens, 48 h, read-out: Log10 GI50 (converted)
CAKI-1 = assay: NCI SRB screen, CAKI-1; settings: Homo sapiens, CAKI-1, 48 h, read-out: GI50 values
SN12C = assay: NCI SRB screen, SN12C; settings: Homo sapiens, 48 h, read-out: GI50 values
Melanoma cell lines = assay: NCI SRB screen, Melanoma panel average; settings: Homo sapiens, 48 h, read-out: Log10 GI50 (converted)
OVCAR-3 = assay: NCI SRB screen, OVCAR-3; settings: Homo sapiens, OVCAR-3, 48 h, read-out: GI50 values
[5] = test system: Prostate cancer cell lines; assay: NCI SRB screen, Prostate panel average; settings: Homo sapiens, 48 h, read-out: Log10 GI50 (converted)
UACC-257 = assay: NCI SRB screen, UACC-257; settings: Homo sapiens, UACC-257, 48 h, read-out: GI50 values
CNS cancer cell lines = assay: NCI SRB screen, CNS panel average; settings: Homo sapiens, 48 h, read-out: Log10 GI50 (converted)
M14 = assay: NCI SRB screen, M14; settings: Homo sapiens, M14, 48 h, read-out: GI50 values
HCT-116 = assay: NCI SRB screen, HCT-116; settings: Homo sapiens, HCT-116, 48 h, read-out: GI50 values
NCIH322M = assay: NCI SRB screen, NCIH322M; settings: Homo sapiens, NCI-H322M, 48 h, read-out: GI50 values
IGROV1 = assay: NCI SRB screen, IGROV1; settings: Homo sapiens, IGROV-1, 48 h, read-out: GI50 values
RPMI-8226 = assay: NCI SRB screen, RPMI-8226; settings: Homo sapiens, RPMI-8226, 48 h, read-out: GI50 values
UO-31 = assay: NCI SRB screen, UO-31; settings: Homo sapiens, UO-31, 48 h, read-out: GI50 values
HOP-62 = assay: NCI SRB screen, HOP-62; settings: Homo sapiens, HOP-62, 48 h, read-out: GI50 values
Colon cancer cell lines = assay: NCI SRB screen, Colon panel average; settings: Homo sapiens, 48 h, read-out: Log10 GI50 (converted)
[6] = read-out: Log10 GI50 mean graph midpoint (MG_MID) (converted)

Structure (SMILES) | GI50 (SR) [nM] | GI50 (SNB-19) [nM] | GI50 (RXF 393) [nM] | GI50 (SF-295) [nM] | GI50 (SW-620) [nM] | GI50 (DU-145) [nM] | GI50 ([1]; read-out: GI50 value range) [nM] | GI50 [1, 6] [nM] | anticancer activity (in words) [1] | Log10 TGI mean graph midpoint (MG_MID) [1] | GI50 (MOLT-4) [nM] | GI50 (T-47D) [nM] | GI50 (MDA-MB-435 [2]) [nM] | GI50 (NCI-H23) [nM] | GI50 (HS 578T) [nM] | GI50 (MDA-MB-435 [3]) [nM] | GI50 (U251) [nM] | GI50 (A498) [nM] | GI50 (HCC-2998) [nM] | GI50 (UACC-62) [nM] | also measured
COc1cc(-c2cc(-c3nc4ccccc4[nH]3)[nH]n2)cc(OC)c1OC [6f, 2-(3-(3,4,5-trimethoxyphenyl)-1H-pyrazol-5-yl)-1H-benzo[d]imidazole] | 3320 | 1780 | 1770 | 3130 | 7730 | 3900 | 340 to 10000 | 2880 | significant anticancer activity; also recorded: pronounced activities | −4.83 | 2130 | 1110 | 930 | 2260 | 6890 | 2350 | 3730 | 1510 | 7100 | 1640 | GI50 [4]: 3240 nM; GI50 (CAKI-1): 2240 nM; GI50 (SN12C): 3910 nM; GI50 (Melanoma cell lines): 2090 nM; GI50 (OVCAR-3): 4000 nM; GI50 [5]: 2880 nM; GI50 (UACC-257): 2100 nM; GI50 (CNS cancer cell lines): 5250 nM; GI50 (M14): 2570 nM; GI50 (HCT-116): 3150 nM; GI50 (NCIH322M): 2850 nM; GI50 (IGROV1): 2340 nM; GI50 (RPMI-8226): 1200 nM; GI50 (UO-31): 2210 nM; GI50 (HOP-62): 3540 nM; GI50 (Colon cancer cell lines): 4790 nM
COc1ccc2[nH]c(-c3cc(-c4cc(OC)c(OC)c(OC)c4)n[nH]3)nc2c1 [9f, 5-methoxy-2-(3-(3,4,5-trimethoxyphenyl)-1H-pyrazol-5-yl)-1H-benzo[d]imidazole] | 1740 | 2980 | 2490 | 1620 | 2890 | 2290 | 340 to 10000 | 1700 | significant anticancer activity; also recorded: pronounced activities | −5.17 | 730 | 340 | 380 | 1340 | 2890 | 1490 | 2900 | 2230 | 3030 | 1120 | potency compared with compounds 6f, 6g, 7g and 10f [1]: more potent; growth inhibitory activity (in words) ([1]; against breast cancer and leukemia cell lines): potential growth inhibitory activity; GI50 [4]: 2040 nM; GI50 (CAKI-1): 1790 nM; GI50 (SN12C): 2060 nM; GI50 (Melanoma cell lines): 1320 nM; GI50 (OVCAR-3): 2050 nM; GI50 [5]: 1550 nM; GI50 (UACC-257): 1670 nM; GI50 (CNS cancer cell lines): 2450 nM; GI50 (M14): 1660 nM; GI50 (HCT-116): 1810 nM; GI50 (NCIH322M): 2470 nM; GI50 (IGROV1): 1900 nM; GI50 (RPMI-8226): 640 nM; GI50 (UO-31): 1570 nM; GI50 (HOP-62): 2020 nM; GI50 (Colon cancer cell lines): 2290 nM
COc1cc(-c2cc(-c3nc4cc(Cl)ccc4[nH]3)[nH]n2)cc(OC)c1OC [8f, 5-chloro-2-(3-(3,4,5-trimethoxyphenyl)-1H-pyrazol-5-yl)-1H-benzo[d]imidazole] | 3320 | 7250 | 3260 | 2350 | 4990 | 3270 | 340 to 10000 | 3020 | significant anticancer activity; also recorded: pronounced activities | −4.93 | 2020 | 1580 | 2330 | 2730 | 3580 | 3300 | 3380 | 2100 | 5980 | 1970 | potency compared with compounds 6f, 6g, 7g and 10f [1]: more potent; mean graph pattern: profile of activity and selectivity ([1]; various cell lines): an interesting profile of activity and selectivity; GI50 [4]: 3550 nM; GI50 (CAKI-1): 2800 nM; GI50 (SN12C): 3060 nM; GI50 (Melanoma cell lines): 2450 nM; GI50 (OVCAR-3): 3500 nM; GI50 [5]: 2880 nM; GI50 (UACC-257): 2600 nM; GI50 (CNS cancer cell lines): 3720 nM; GI50 (M14): 2920 nM; GI50 (HCT-116): 3450 nM; GI50 (NCIH322M): 3650 nM; GI50 (IGROV1): 3420 nM; GI50 (RPMI-8226): 1650 nM; GI50 (UO-31): 2640 nM; GI50 (HOP-62): 3110 nM; GI50 (Colon cancer cell lines): 3980 nM
